Assay results reported in US20230219886A1, “NOVEL SELENO-NSAID ANALOGS AND USES THEREOF” (THE PENN STATE RESEARCH FOUNDATION, priority 2020, published 2023).
Like-named read-outs stand apart in the source and are kept apart here.

What was measured:
[1] = tested on: DU-145 (prostate carcinoma); assay: MTT cell viability assay, DU-145; conditions: Homo sapiens, DU-145, 48 h, read-out: cell viability
Protocol: (§1) Cell Culture Conditions. The cell lines were obtained from the American Type Culture Collection (ATCC). PANC-1 and Caco-2 cell lines were maintained in DMEM medium (Gibco); HT-29, HCT-116 and RKO cells were maintained in McCoy's 5A medium (Gibco); and DU-145 and H1299 cells were maintained in RPMI 1640 medium (Gibco), supplemented with 10% fetal bovine serum (FBS; Gibco) and 1% antibiotics (10.00 units/mL penicillin and 10.00 mg/mL streptomycin; Gibco). Cells were preserved in tissue culture flasks at 37° C. and 5% CO2. Culture medium was replaced every three days.
(§2) Cell Viability Assay. The effect of each compound on cell viability was tested using the MTT assay (81). Briefly, 9000 cells/well were grown in 96-well plates for 12 h. Then these cells were incubated with either DMSO (control) or nine different concentration between 0.01-50 μM of the test compounds for 24, 48, and 72 h. Three hours before the termination point, 20 μL of MTT were added to measure cellular viability. The resultant formazan crystals were dissolved in 50 μL of DMSO, and absorbance was measured at 570 nm and 630 nm wavelengths. IC50, GI50, TGI and LC50 values were calculated using OriginPro 8.5.1.
(§3) Evaluation of the antiproliferative activities of the novel molecules. […] These four cell lines were treated with each compound at three concentrations (5, 25 and 50 μM) for 48 h.

[2] = tested on: HT-29 (CRC); assay: MTT cell viability assay, HT-29; conditions: for GI50 / IC50 / viability at 5 µM / viability at 25 µM / viability at 50 µM: Homo sapiens; for viability at 5 µM / viability at 25 µM / viability at 50 µM: read-out: cell viability
Protocol: as §1, §2, §3

[3] = tested on: PANC-1 (pancreatic carcinoma); assay: MTT cell viability assay, Panc-1; conditions: Homo sapiens, PANC-1, 48 h, read-out: cell viability
Protocol: as §1, §2, §3

[4] = tested on: HCT-116 CRC cells; assay: MTT cell viability assay, HCT-116; type: cell-based, human; conditions: Homo sapiens
Protocol: as §1, §2

[5] = tested on: H1299 (lung carcinoma); assay: MTT cell viability assay, H1299; conditions: Homo sapiens, NCI-H1299, 48 h, read-out: cell viability
Protocol: as §1, §2, §3

[6] = tested on: CACO-2 CRC cells; assay: cells; conditions: for IC50: Homo sapiens
Protocol: as §1, §2

[7] = tested on: RKO CRC cells; assay: cells; conditions: Homo sapiens
Protocol: as §1, §2

Row | Compound | viability at 5 µM [1] [%] | viability at 25 µM [1] [%] | viability at 50 µM [1] [%] | IC50 ([2]; HT-29, 24 h) [µM] | IC50 ([2]; HT-29, 48 h) [µM] | viability at 5 µM ([2]; HT-29, 48 h) [%] | viability at 25 µM ([2]; HT-29, 48 h) [%] | viability at 50 µM ([2]; HT-29, 48 h) [%] | IC50 ([2]; HT-29, 72 h) [µM] | viability at 5 µM [3] [%] | viability at 25 µM [3] [%] | viability at 50 µM [3] [%] | viability at 5 µM [5] [%] | viability at 25 µM [5] [%] | IC50 ([6]; Caco-2, 24 h) [µM] | IC50 ([6]; Caco-2, 48 h) [µM] | IC50 ([6]; Caco-2, 72 h) [µM] | IC50 ([7]; 24 h) [µM] | IC50 ([7]; 48 h) [µM] | IC50 ([7]; 72 h) [µM] | also measured
1 | CC(=O)Oc1ccccc1C(=O)O [ASA, aspirin, reference compound] | 89.8 ± 11 | 85.3 ± 25.1 | 90.9 ± 24.6 | > 50 | > 50 | 73.1 ± 13 | 57.2 ± 11.3 | 35.5 ± 7.7 | > 50 | 86.7 ± 5.4 | 63.8 ± 3.1 | 68.6 ± 5.1 | 44.1 ± 4.4 | 51.1 ± 1.6 | > 50 | > 50 | > 50 | > 50 | > 50 | > 50 | TGI ([2]; HT-29, 24 h): >50 µM; TGI ([2]; HT-29, 48 h): >50 µM; TGI ([2]; HT-29, 72 h): >50 µM; GI50 ([2]; HT-29, 24 h): > 50 µM; GI50 ([2]; HT-29, 48 h): > 50 µM; GI50 ([2]; HT-29, 72 h): > 50 µM; IC50 ([4]; HCT-116, 24 h, read-out: IC50): > 50 µM; IC50 ([4]; HCT-116, 48 h, read-out: IC50): > 50 µM; IC50 ([4]; HCT-116, 72 h, read-out: IC50): > 50 µM; viability at 50 µM [5]: 58.3 ± 3.6%
2 | CC[Se]C(=O)c1ccccc1OC(C)=O [Compound 1b, 2-((ethylselanyl)carbonyl)phenyl acetate] | – | – | – | > 50 | 4.2 ± 0.4 | – | – | – | 4.2 ± 0.9 | – | – | – | – | – | > 50 | > 50 | > 50 | > 50 | > 50 | > 50 | IC50 ([4]; HCT-116, 24 h, read-out: IC50): > 50 µM; IC50 ([4]; HCT-116, 48 h, read-out: IC50): 13.2 ± 2.6 µM; IC50 ([4]; HCT-116, 72 h, read-out: IC50): 6.8 ± 4.2 µM; effect on CACO-2 viability [6]: no effect
3 | CC(=O)Oc1ccccc1C(=O)[Se]Cc1ccccc1 [Compound 1c, 2-((benzylselanyl)carbonyl)phenyl acetate] | – | – | – | > 50 | 4.8 ± 0.2 | – | – | – | 4.8 ± 0.1 | – | – | – | – | – | > 50 | > 50 | 11.8 ± 5.9 | > 50 | 10.4 ± 0.1 | 5 ± 0.1 | IC50 ([4]; HCT-116, 24 h): > 50 µM; IC50 ([4]; HCT-116, 48 h): 8 ± 2.1 µM; IC50 ([4]; HCT-116, 72 h): 8.2 ± 2.2 µM
4 | C[Se]C(=O)c1cc(-c2ccc(F)cc2F)ccc1O [Compound 2a, Se-methyl 2′,4′-difluoro-4-hydroxy-[1,1′-biphenyl]-3-carboselenoate] | 53.9 ± 14.1 | 40.7 ± 8.3 | 39.5 ± 2.7 | – | – | 46.6 ± 11.9 | 23.5 ± 7.2 | 28.4 ± 2.7 | – | 53.5 ± 9.7 | 38.5 ± 8.1 | 39.1 ± 11.1 | 96.8 ± 19.8 | 80 ± 10.7 | – | – | – | – | – | – | viability at 50 µM [5]: 79.9 ± 9%
5 | COc1ccc2cc([C@H](C)C(=O)[Se]C)ccc2c1 [Compound 3a, Se-methyl (S)-2-(6-methoxynaphthalen-2-yl)propaneselenoate] | 56.2 ± 18.4 | 35 ± 16.1 | 31.4 ± 23.6 | – | – | 52.2 ± 30.9 | 41.8 ± 26.4 | 46.4 ± 24.7 | – | 46.7 ± 9.7 | 34.4 ± 6.3 | 30.5 ± 6 | 48.3 ± 5.4 | 42.4 ± 2.7 | – | – | – | – | – | – | viability at 50 µM [5]: 34.3 ± 1.3%
6 | C[Se]C(=O)c1ccccc1Nc1cccc(C)c1C [Compound 4a, Se-methyl 2-((2,3-dimethylphenyl)amino)benzoselenoate] | 58 ± 14.1 | 29.7 ± 10.9 | 32 ± 6.5 | – | – | 41.6 ± 6.4 | 16.6 ± 4.7 | 22.6 ± 0.7 | – | 47.5 ± 5.9 | 26.3 ± 3.9 | 22.6 ± 3 | 98.7 ± 0.4 | 99.4 ± 0.3 | – | – | – | – | – | – | viability at 50 µM [5]: 100%
7 | CC[Se]C(=O)Cc1c(C)n(C(=O)c2ccc(Cl)cc2)c2ccc(OC)cc12 [Compound 5b, Se-ethyl 2-(1-(4-chlorobenzoyl)-5-methoxy-2-methyl-1H-indol-3-yl)ethane-selenoate] | – | – | – | > 50 | 4.9 ± 0.3 | – | – | – | 4.9 ± 0.1 | – | – | – | – | – | > 50 | > 50 | > 50 | > 50 | 30.8 ± 3.5 | 33.3 ± 16.9 | IC50 ([4]; HCT-116, 24 h, read-out: IC50): > 50 µM; IC50 ([4]; HCT-116, 48 h, read-out: IC50): 6.3 ± 1.6 µM; IC50 ([4]; HCT-116, 72 h, read-out: IC50): 8.2 ± 1.7 µM; effect on CACO-2 viability [6]: no effect
8 | COc1ccc2c(c1)c(CC(=O)[Se]Cc1ccccc1)c(C)n2C(=O)c1ccc(Cl)cc1 [Compound 5c, Se-benzyl 2-(1-(4-chlorobenzoyl)-5-methoxy-2-methyl-1H-indol-3-yl)ethane-selenoate] | – | – | – | > 50 | 4.2 ± 0.5 | – | – | – | 4 ± 1 | – | – | – | – | – | > 50 | > 50 | > 50 | > 50 | 26.2 ± 4.6 | 11.5 ± 0.9 | IC50 ([4]; HCT-116, 24 h): > 50 µM; IC50 ([4]; HCT-116, 48 h): 14 ± 6.6 µM; IC50 ([4]; HCT-116, 72 h): 5.5 ± 1.2 µM
9 | CC[Se]C(=O)CC1=C(C)/C(=C/c2ccc([S+](C)[O-])cc2)c2ccc(F)cc21 (stereo not drawn) [Compound 6b, Se-ethyl (Z)-2-(5-fluoro-2-methyl-1-(4-(methylsulfinyl)benzylidene)-1H-inden-3-yl)ethaneselenoate] | – | – | – | 10.9 ± 1.4 | 4.9 ± 0.2 | – | – | – | 5 ± 0.1 | – | – | – | – | – | > 50 | > 50 | > 50 | > 50 | 41.8 ± 13.8 | 12.4 ± 0.5 | IC50 ([4]; HCT-116, 24 h, read-out: IC50): > 50 µM; IC50 ([4]; HCT-116, 48 h, read-out: IC50): 6.2 ± 0.9 µM; IC50 ([4]; HCT-116, 72 h, read-out: IC50): 7.2 ± 1 µM; effect on CACO-2 viability [6]: no effect
10 | CC1=C(CC(=O)[Se]Cc2ccccc2)c2cc(F)ccc2/C1=C\c1ccc([S+](C)[O-])cc1 (stereo not drawn) [Compound 6c, Se-benzyl (Z)-2-(5-fluoro-2-methyl-1-(4-(methylsulfinyl)benzylidene)-1H-inden-3-yl)ethaneselenoate] | – | – | – | > 50 | 5.1 ± 0.1 | – | – | – | 5.2 ± 0.2 | – | – | – | – | – | > 50 | 11.4 ± 1.6 | 14.2 ± 3.9 | > 50 | > 50 | 35.8 ± 5.9 | IC50 ([4]; HCT-116, 24 h): > 50 µM; IC50 ([4]; HCT-116, 48 h): 7.8 ± 1.8 µM; IC50 ([4]; HCT-116, 72 h): 7 ± 0.8 µM
11 | O=C(O)c1cc(-c2ccc(F)cc2F)ccc1O [Dfl, diflunisal, reference compound] | 71 ± 6.9 | 71.5 ± 9.1 | 78.9 ± 6.4 | – | – | 93.2 ± 5.7 | 82.7 ± 9.8 | 74.7 ± 2 | – | 77.9 ± 5.4 | 75.5 ± 6.9 | 68.5 ± 9.3 | 85.2 ± 3.6 | 94.3 ± 3.9 | – | – | – | – | – | – | viability at 50 µM [5]: 88.7 ± 7.8%
12 | Cc1cccc(Nc2ccccc2C(=O)O)c1C [Mf, mefenamic acid, reference compound] | 100 | 100 | 100 | – | – | 91.9 ± 4.9 | 75.7 ± 4.1 | 64.9 ± 4.5 | – | 72.4 ± 5.6 | 61.9 ± 10.9 | 65.9 ± 5.1 | 71.4 ± 15.5 | 44.9 ± 1.4 | – | – | – | – | – | – | viability at 50 µM [5]: 39.4 ± 1.3%
